Results as given in patent publication US20230097883A1, “ERGOTHIONEINE PET COMPOUNDS AND METHODS OF USE THEREOF” (VANDERBILT UNIVERSITY, priority 2021, published 2023).
“Also recorded” adds a separate entry of the source.

Key:
[1] = Nickel assay: 2D-HPLC with nickel HisTrap column and His-tag antibodies; assay type: binding
Experimental: In principle, nickel is a transition metal like Fe, Cu and Zn. The nickel column can immobilize hexahistidine-tag (His-tag) recombinant proteins, such as recombinant antibodies harboring a His tag (His-Abs). In our experimental design, nickel forms a substantial coordination equilibrium with histidines via the imidazole ring structures to form a stable metal/ligand complex. This assay uses two different buffer reservoirs, a wash buffer (PBS) and an elution buffer (PBS containing 50 mM imidazole). To remove the His-Abs (14 KDa) from the nickel column, the washing buffer was switched to the elution buffer and the His-Abs dislodged from the column were detected by the 2D-HPLC (FIG. 3.1C, left). In a different phase of the experiment, the His-Abs solution was spiked with ERGO (14.5 mM) prior to injection into the HPLC system. […] The integrity of the eluted His-Abs was collected and confirmed by orbit trap mass spectrometry.
ERGO's metal-binding affinity was tested via a 2D-HPLC equipped with a nickel-based HisTrap HP column (Cytiva, Marlborough, Mass., USA). The 2D-HPLC was performed with a Hitachi LaChrom Elite L-2455 Diode Array Detector linked to a Hitachi L-2130 pump (Hitachi High-Technologies, Corp., Tokyo, Japan). […]

[2] = tested on: 5XFAD mice; test: Elevated zero maze after ERGO treatment; assay type: in vivo, mouse
Experimental: (§1) To address our primary question whether longitudinal consumption of ERGO as a potent antioxidant benefit the brain, three cohorts of animals (n=12 non-treated WT control, n=12 non-treated 5XFAD, and n=18 ERGO-treated 5XFAD) were used (FIG. 3.2A). Starting at the age of 8 weeks, the animals were treated with high doses of ERGO solution (25-50 mg/Kg) formulated in double distilled (dd) water via oral gavage three times a week over the course of eight weeks. To reduce bias in the behavioral experiments with regard to the potential stress during gavage treatment, non-treated animals underwent the identical gavage process with the vehicle, water, only. The efficacy of the therapy was evaluated by behavioral testing, followed by three different non-invasive PET imaging sessions to assess biomarkers related to AD pathology. In addition to assessing Abeta levels and glucose metabolism using the [^11C]PIB and [^18F]FDG probes, respectively; we also tested for the first time whether oxidative stress could be used as an indicator of response to therapy using the [^11C]ERGO PET radioligand. […]
We recorded exploratory activity in open versus closed zones of a standard EZM during a 5-min trial. […] Closed zones had walls of approximately 30 cm height and light levels of 215-280 lux depending on where they were measured. […]

[3] = tested on: 5XFAD mice; test: Novel object recognition after ERGO treatment; assay type: in vivo, mouse; details: ERGO-treated 5XFAD versus non-treated 5XFAD and WT, final test trial
Experimental: as §1, with “pathology.” for “pathology. In addition to assessing Abeta levels and glucose metabolism using the [^11C]PIB and [^18F]FDG probes, respectively; we also tested for the first time whether oxidative stress could be used as an indicator of response to therapy using the [^11C]ERGO PET radioligand.”
Mice were first allowed to habituate to an open arena for 5 min (white acrylic box, approximately 40 cm^2) located under a camera to record position and movement during trials. […] Preference for either object was inferred from exploratory proximity which was recorded automatically using AnyMaze using a target area comprising a circle with diameter 2-cm larger than the target objects. […]

[4] = tested on: GFAP-positive astrocytes; test: GFAP immunohistochemistry of brain sections after ERGO treatment; assay type: in vivo, mouse; details: ERGO-treated versus non-treated 5XFAD mice
Experimental: In this study, after the PET imaging, animals (non-treated 5XFAD (n=3) and ERGO-treated 5XFAD mice (n=5)) were perfused, and the brain sections were stained with antibodies against GFAP and IBA1 for neuroinflammatory markers astrocytes and microglia, respectively.
Brains embedded in OCT were cut into sagittal sections (10 μm) using a Tissue-Tek cryostat and mounted onto charged glass slides. Prior to staining, slides were washed with PBS (10 min); then, they were treated with blocking buffer (5% normal goat serum, 0.2% Triton X-100, 0.5% bovine albumin in PBS) for 1 h at room temperature. The treated sections were then incubated overnight at 4° C. with primary anti-GFAP antibody (1:100 dilution, Biolegend San Diego, Calif., USA). Slides were washed with PBS (3×) for 10 min each, the sections were subsequently incubated with secondary antibody goat anti-mouse Alexa Fluor 488 (1:200 dilution, Thermo Fisher Scientific, Carlsbad, Calif., USA) for 30 min at room temperature. The sections were then washed with PBS twice for 10 min and once for 30 min, and coverslipped with an antifade mounting medium (Vector Laboratories, Burlingame, Calif.) before observation under a fluorescence microscope.
Quantitative analysis of the PET imaging and IHC data was performed using imageJ software. […]

With `C[N+](C)(C)[C@@H](Cc1c[nH]c(=S)[nH]1)C(=O)[O-]` [ERGO, L-ergothioneine] the “elution of His-tag antibodies from the nickel column in the presence of ERGO” value ([1]; His-Abs solution spiked with ERGO 14.5 mM, PBS wash buffer) was “eluted from the nickel column immediately by the wash buffer; also recorded: washed out immediately”, the “elution of His-tag camelid antibodies from the nickel column in the presence of ERGO” value ([1]; antibody injected with addition of ERGO 50 nM, PBS mobile phase) was “Right at the beginning of the run, His-tag camelid antibodies were eluted” and the “adverse effects on activity or anxiety-like behavior” value ([2]; 5XFAD mice, ERGO 25-50 mg/Kg oral gavage three times a week over eight weeks) was “no adverse effects”. The “time spent exploring the closed zones” value ([2]; ERGO-treated 5XFAD mice (each group), 5-min trial) was roughly 60%, the discrimination index [3] was “did not vary among the groups” and the “reduction of GFAP-positive astrocytes in the hippocampus” value [4] was roughly 50%.
